Consider 26 compounds from US7576222B2, “Alkynyl-containing tryptophan derivative inhibitors of TACE/matrix metalloproteinase” (priority 2004, dated 2009).

Molecules are shown by their SMILES.

In one experiment the target is T1, catalytic domain of the recombinant TACE protein (Homo sapiens, UniProt P78536).
T1 construct: The catalytic domain of the recombinant TACE protein was expressed and purified; made in house
T1 sequence (P78536 223-474 limits assumed): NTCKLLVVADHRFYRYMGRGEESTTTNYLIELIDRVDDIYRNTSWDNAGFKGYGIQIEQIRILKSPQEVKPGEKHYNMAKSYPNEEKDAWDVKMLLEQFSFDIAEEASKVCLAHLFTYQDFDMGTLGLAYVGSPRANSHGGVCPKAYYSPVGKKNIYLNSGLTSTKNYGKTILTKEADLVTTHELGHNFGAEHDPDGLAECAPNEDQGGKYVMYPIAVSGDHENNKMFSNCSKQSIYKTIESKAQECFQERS
Put plainly: TACE FRET assay using TACE cat. It is filed as biochemical.
Conditions: not given
The method, then:
TACE FRET Assay Using TACE Cat
“K” is the IC50. Generally, “n” and “B” are floated, noting that n (Hill slope) should be close to 1 and B (background offset) to 0.
Pro-TNF-α substrate peptide Abz-[…]-Dpa (AnaSpec, San Jose, Calif., WARC-1) was prepared as a 2 mM stock solution in the TACE assay buffer (50 mM Tris-HCl, pH 7.4, 25 mM NaCl, 4% Glycerol, 0.005% Brij 35). The catalytic domain of the recombinant TACE protein was expressed and purified. The TACE protein (1 ug/ml) was pretreated with the inhibitors at various concentrations for 10 min. at room temperature. The reaction was initiated by the addition of the substrate peptide. […] The initial rate (slope) of the reaction was determined using a fluorescence plate reader (Molecular Devices, Spectra Max Gemini XS).
As to `CC#CCOc1ccc(S(=O)(=O)N[C@@H](Cc2c(C)n(Cc3ccccc3)c3ccc(OC)cc23)C(=O)O)cc1` [Example 185, 1-benzyl-N-{[4-(but-2-ynyloxy)phenyl]sulfonyl}-5-methoxy-2-methyltryptophan], the IC50 came out at 200 nM. On the same count and under the same terms, the result for `CC#CCOc1ccc(S(=O)(=O)N[C@@H](Cc2c[nH]c3ccc(F)cc23)C(=O)O)cc1` [Example 3, N-{[4-(but-2-ynyloxy)phenyl]sulfonyl}-5-fluorotryptophan] reads 1560 nM.

Consider `CC#CCOc1ccc(S(=O)(=O)N[C@H](Cc2cn(C)c3ccccc23)C(=O)O)cc1` [Example 21, N-{[4-(but-2-ynyloxy)phenyl]sulfonyl}-1-methyl-D-tryptophan], for which the IC50 is 1400 nM. Turning to `CC#CCOc1ccc(S(=O)(=O)N[C@@H](Cc2cn(Cc3ccccc3F)c3ccc(OC)cc23)C(=O)O)cc1` [Example 58, N-{[4-(but-2-ynyloxy)phenyl]sulfonyl}-1-(2-fluorobenzyl)-5-methoxytryptophan], the IC50 stood at 2240 nM. For `CC#CCOc1ccc(S(=O)(=O)N[C@@H](Cc2c(C)n(Cc3ccc(C)cc3)c3ccc(OC)cc23)C(=O)O)cc1` [Example 188, N-{[4-(but-2-ynyloxy)phenyl]sulfonyl}-5-methoxy-2-methyl-1-(4-methylbenzyl)tryptophan], the IC50 was found to be 270 nM. Consider `CC#CCOc1ccc(S(=O)(=O)N[C@@H](Cc2c(C)n(Cc3ccccc3C)c3ccc(OC)cc23)C(=O)O)cc1` [Example 186, N-{[4-(but-2-ynyloxy)phenyl]sulfonyl}-5-methoxy-2-methyl-1-(2-methylbenzyl)tryptophan], for which the half-inhibitory concentration (IC50) was found to be 280 nM.

Staying with this experiment, now noted: TACE FRET assay, Conc. 1 μM.
Take `CC#CCOc1ccc(S(=O)(=O)N[C@@H](Cc2cn(Cc3ccccc3OC)c3ccc(C(=O)O)cc23)C(=O)O)cc1` [Example 107]: the “TACE Inhibition (%)” value was found to be 7.34%.

Still in this experiment, the particulars now being: TACE FRET assay, catalytic domain of recombinant TACE; read-out: TACE IC50.
On to `CC#CCOc1ccc(S(=O)(=O)N[C@H](Cc2cn(Cc3ccc(C(F)(F)F)cc3)c3ccccc23)C(=O)O)cc1` [Example 41, N-{[4-(but-2-ynyloxy)phenyl]sulfonyl}-1-[4-(trifluoromethyl)benzyl]-D-tryptophan], for which the IC50 worked out at 4400 nM. On the same count and under the same terms, to `CC#CCOc1ccc(S(=O)(=O)N[C@@H](Cc2c[nH]c3ccccc23)C(=O)O)cc1` [Example 2, N-{[4-(but-2-ynyloxy)phenyl]sulfonyl}-L-tryptophan] belongs 8200 nM.

Still in this experiment, the particulars now being: read-out: TACE Inhibition (%).
Regarding `CC#CCOc1ccc(S(=O)(=O)N[C@@H](Cc2cn(Cc3ccc(OC(F)(F)F)cc3)c3ccc(C#N)cc23)C(=O)O)cc1` [Example 140, N-{[4-(but-2-ynyloxy)phenyl]sulfonyl}-5-cyano-1-[4-(trifluoromethoxy)benzyl]tryptophan], the inhibition at 1 µM stood at 16%. On to `CC#CCOc1ccc(S(=O)(=O)N[C@@H](Cc2c(C)n(CC(C)C)c3ccc(OC)cc23)C(=O)O)cc1` [Example 210, N-{[4-(but-2-ynyloxy)phenyl]sulfonyl}-1-isobutyl-5-methoxy-2-methyltryptophan], for which the inhibition at 1 µM turned out to be 66.6%. `CC#CCOc1ccc(S(=O)(=O)N[C@@H](Cc2cn(Cc3ccccc3OC)c3ccc(Cl)cc23)C(=O)O)cc1` [Example 74, N-{[4-(but-2-ynyloxy)phenyl]sulfonyl}-5-chloro-1-(2-methoxybenzyl)tryptophan]: the inhibition at 1 µM is 15%.

Consider `CC#CCOc1ccc(S(=O)(=O)N[C@@H](Cc2cn(Cc3ccc4c(c3)OCO4)c3ccc(Cl)cc23)C(=O)O)cc1` [Example 83, 1-(1,3-benzodioxol-5-ylmethyl)-N-{[4-(but-2-ynyloxy)phenyl]sulfonyl}-5-chlorotryptophan], for which the inhibition at 1 µM is 31.1%. Regarding `CC#CCOc1ccc(S(=O)(=O)N[C@@H](Cc2cn(Cc3ccccc3)c3ccc(Cl)cc23)C(=O)O)cc1` [Example 71, 1-benzyl-N-{[4-(but-2-ynyloxy)phenyl]sulfonyl}-5-chlorotryptophan], the inhibition at 1 µM was -1.19%.

For the compound `CC#CCOc1ccc(S(=O)(=O)N[C@H](Cc2cn(Cc3ccc(OCC)cc3)c3ccccc23)C(=O)O)cc1` [Example 215, N-{[4-(but-2-ynyloxy)phenyl]sulfonyl}-1-(4-ethoxybenzyl)-D-tryptophan], the inhibition at 1 µM was 69.5%. As to `CC#CCOc1ccc(S(=O)(=O)N[C@@H](Cc2cn(Cc3ccc(C(C)C)cc3)c3ccc(C(=O)O)cc23)C(=O)O)cc1` [Example 120, N-{[4-(but-2-ynyloxy)phenyl]sulfonyl}-5-carboxy-1-(4-isopropylbenzyl)tryptophan], the inhibition at 1 µM was 10%. As for `CC#CCOc1ccc(S(=O)(=O)N[C@@H](Cc2c[nH]c3ccc(Cl)cc23)C(=O)O)cc1` [Example 133, N-{[4-(but-2-ynyloxy)phenyl]sulfonyl}-5-chlorotryptophan], the inhibition at 1 µM is 73.9%. For `CC#CCOc1ccc(S(=O)(=O)N[C@@H](Cc2cn(C)c3ccc(C(=O)O)cc23)C(=O)O)cc1` [Example 127, N-{[4-(but-2-ynyloxy)phenyl]sulfonyl}-5-carboxy-1-methyltryptophan], the inhibition at 1 µM is -3.22%. For the compound `CC#CCOc1ccc(S(=O)(=O)N[C@@H](Cc2c(C)n(Cc3cccc(OC)c3)c3ccc(Cl)cc23)C(=O)O)cc1` [Example 90, N-{[4-(but-2-ynyloxy)phenyl]sulfonyl}-5-chloro-1-(3-methoxybenzyl)-2-methyltryptophan], the inhibition at 1 µM stood at 65.2%. As for `CC#CCOc1ccc(S(=O)(=O)N[C@@H](Cc2cn(Cc3ccc(Cl)cc3)c3ccc(C(=O)O)cc23)C(=O)O)cc1` [Example 119, N-{[4-(but-2-ynyloxy)phenyl]sulfonyl}-5-carboxy-1-(4-chlorobenzyl)tryptophan], the inhibition at 1 µM was determined as 11.7%. For the compound `CC#CCOc1ccc(S(=O)(=O)N[C@@H](Cc2cn(CC(C)C)c3ccc(C#N)cc23)C(=O)O)cc1` [Example 143, N-{[4-(but-2-ynyloxy)phenyl]sulfonyl}-5-cyano-1-isobutyltryptophan], the inhibition at 1 µM came to 32.4%. With `CC#CCOc1ccc(S(=O)(=O)N[C@@H](Cc2cn(Cc3ccc(Cl)cc3)c3ccc(OC)cc23)C(=O)O)cc1` [Example 62, N-{[4-(but-2-ynyloxy)phenyl]sulfonyl}-1-(4-chlorobenzyl)-5-methoxytryptophan], the inhibition at 1 µM amounted to 39.3%. For the compound `CC#CCOc1ccc(S(=O)(=O)N[C@@H](Cc2c(C)n(Cc3ccc(Cl)cc3)c3ccc(Cl)cc23)C(=O)O)cc1` [Example 96, N-{[4-(but-2-ynyloxy)phenyl]sulfonyl}-5-chloro-1-(4-chlorobenzyl)-2-methyltryptophan], the inhibition at 1 µM worked out at 56.5%. With `CC#CCOc1ccc(S(=O)(=O)N[C@@H](Cc2c(C)[nH]c3ccccc23)C(=O)O)cc1` [Example 134, N-{[4-(but-2-ynyloxy)phenyl]sulfonyl}-2-methyltryptophan], the inhibition at 1 µM worked out at 64.2%. Still for that read-out and setting: to `CC#CCOc1ccc(S(=O)(=O)N[C@@H](Cc2cn(CC3CCCCC3)c3ccc(Cl)cc23)C(=O)O)cc1` [Example 87, N-{[4-(but-2-ynyloxy)phenyl]sulfonyl}-5-chloro-1-(cyclohexylmethyl)tryptophan] belongs 37.4%. As for `CC#CCOc1ccc(S(=O)(=O)N[C@@H](Cc2c(C)n(Cc3ccc(OC(F)(F)F)cc3)c3ccc(OC)cc23)C(=O)O)cc1` [Example 196, N-{[4-(but-2-ynyloxy)phenyl]sulfonyl}-5-methoxy-2-methyl-1-[4-(trifluoromethoxy)benzyl]tryptophan], the inhibition at 1 µM came to 72.8%.
